Results as given in US6228842A, “Pacidamycins produced by Streptomyces coeruleorubidus” (Microcide Pharmaceuticals, Inc., priority 1998, dated 2001).

Experiments:
Test in all cases: In vitro antibacterial MIC, broth microdilution
[1] = tested on: P. aeruginosa 799/61; type: cell-based, Pseudomonas aeruginosa; conditions: P. aeruginosa 799/61 (sensitive strain); Mueller Hinton broth, 20 h at 35° C.
Description: (§1) The compounds of the invention were evaluated against various bacterial strains by determining the minimum inhibitory concentration (MIC) of each compound with respect to each strain. The MIC is defined as the lowest concentration of drug which prevents the growth of the bacteria. A variety of different Gram-negative and Gram-positive bacterial species and strains can be selected for assay purposes depending on the particular desired application. The susceptibility assay is performed in Mueller Hinton broth using a microdilution technique in a final test volume of 100 μl using 96-well microtiter plates. Test compounds are prepared in Mueller-Hinton broth at a concentration equivalent to 2-fold the desired final concentration. The bacterial inoculi are prepared as follow. Bacterial strains are grown overnight at 35° C. on Tryptic Soy agar (TSA). For each strain, one isolated colony is used to inoculate a volume of 8 ml of Mueller Hinton broth and these cultures are incubated overnight (20 h) at 35° C. in a shaking incubator. Culture are then diluted 1:10 and allow to grow for an additional one hour at 35° C. in a shaking incubator. The inoculum used for the susceptibility assay is prepared by diluting the early log-phase (1 h) culture 1:2000 with fresh Mueller Hinton broth. A 50 μl volume of the inoculi, and a 50 μl solution of the test compound prepared as described above is added to each well. This procedure results in an inoculum of approximately 5×10^5 CFU/ml. After incubation for 20 h at 35° C., the absorbance of the cultures in each is read, e.g., using the ThermoMax microtiter plate reader (Molecular Devices) at 650 nm. The MIC is defined as the lowest concentration of compounds which prevents growth of the microorganism and therefore results in a final absorbance equal to that of the drug-free (e.g., test compound free) control.

[2] = tested on: P. aeruginosa ATCC 27853; type: cell-based, Pseudomonas aeruginosa; conditions: Mueller Hinton broth, 20 h at 35° C.
Description: as §1

[3] = tested on: P. aeruginosa UPA res.; type: cell-based, Pseudomonas aeruginosa; conditions: Mueller Hinton broth, 20 h at 35° C.
Description: as §1

[4] = tested on: E. coli ATCC 25922; type: cell-based; conditions: Mueller Hinton broth, 20 h at 35° C.
Description: as §1

[5] = tested on: E. faecalis ATCC 29212; type: cell-based; conditions: Mueller Hinton broth, 20 h at 35° C.
Description: as §1

[6] = tested on: S. aureus ATCC 29213; type: cell-based; conditions: Mueller Hinton broth, 20 h at 35° C.
Description: as §1

[7] = tested on: S. epidermidis ATCC 31432; type: cell-based; conditions: Mueller Hinton broth, 20 h at 35° C.
Description: as §1

[8] = tested on: X. maltophilia ATCC 13637; type: cell-based; conditions: Mueller Hinton broth, 20 h at 35° C.
Description: as §1

Row | Compound | Minimal Inhibitory Concentration, MIC [1] | Minimal Inhibitory Concentration, MIC [2] | Minimal Inhibitory Concentration, MIC [3] | Minimal Inhibitory Concentration, MIC [4] | Minimal Inhibitory Concentration, MIC [5] | Minimal Inhibitory Concentration, MIC [6] | Minimal Inhibitory Concentration, MIC [7] | Minimal Inhibitory Concentration, MIC [8]
1 | C[C@H](NC(=O)N[C@@H](Cc1c[nH]c2ccccc12)C(=O)O)C(=O)N[C@H](C(=O)N/C=C1/C[C@@H](O)[C@H](n2ccc(=O)[nH]c2=O)O1)[C@H](C)N(C)C(=O)[C@@H](N)Cc1cccc(O)c1 [Pacidamycin-4, pacidamycin-4, reference compound] | 2 µg/mL | 16 µg/mL | > 250 µg/mL | 64 µg/mL | 64 µg/mL | > 250 µg/mL | > 250 µg/mL | 
2 | pacidamycin-4N | 4 µg/mL | 64 µg/mL | > 256 µg/mL |  |  |  |  | 
3 | pacidamycin-5N | 64 µg/mL | > 500 µg/mL | > 500 µg/mL | > 500 µg/mL | > 500 µg/mL | > 500 µg/mL | > 500 µg/mL | > 500 µg/mL
4 | C[C@H](N)C(=O)N(C)[C@@H](C)[C@H](NC(=O)[C@H](C)NC(=O)N[C@@H](Cc1c[nH]c2ccccc12)C(=O)O)C(=O)N/C=C1/C[C@@H](O)[C@H](n2ccc(=O)[nH]c2=O)O1 [Pacidamycin-D, pacidamycin-D] | 4 µg/mL | 16 µg/mL | > 256 µg/mL |  |  |  |  | 
5 | C[C@H](N)C(=O)N[C@@H](Cc1cccc(O)c1)C(=O)N(C)[C@@H](C)[C@H](NC(=O)[C@H](C)NC(=O)N[C@@H](Cc1c[nH]c2ccccc12)C(=O)O)C(=O)N/C=C1/C[C@@H](O)[C@H](n2ccc(=O)[nH]c2=O)O1 [Pacidamycin-1, pacidamycin-1, reference compound] | 1 µg/mL | 4 µg/mL | > 250 µg/mL | > 250 µg/mL | 64 µg/mL | > 250 µg/mL | > 250 µg/mL | > 250 µg/mL
6 | pacidamycin-5T | 125 µg/mL | > 500 µg/mL | > 500 µg/mL | > 500 µg/mL | > 500 µg/mL | > 500 µg/mL | > 500 µg/mL | > 500 µg/mL
